Measurements published in BindingDB's records for doi:10.1002/cbic.201600573 (X-Chem Pharmaceuticals, 2017).

What follows are molecules tested against Tyrosine-protein kinase BTK (Homo sapiens, UniProt Q06187) (assay: BTK FRET Competitive Binding Assay). Conditions: 30 °C.
Method: The BTK time-resolved FRET-based competitive binding assay and cell-based BTK assays have been previously described.[Xu et al., J.Pharmacol. Exp. Ther., 341:90-103] For the BTK Omnia kinetic assay used in the mechanism of action experiments, assay reagents were prepared from the Omnia Y peptide 5 kit as follows: kinase reaction buffer was diluted to 1X in dH2O. A 10X substrate (100 μm) was prepared in dH20. ATP was prepared at 1 mM (10×) in dH2O, and 2 mM (10×) DTT was prepared in dH2O. A master mix of kinase buffer (10×), peptide (10×), and DTT (10×), all at 2 μL, and dH2O (4 μL) was prepared per well. Untagged BTK enzyme was run in a final concentration of 20 nM. Compounds at varying concentrations and ATP dilutions were prepared in 1V kinase buffer. Final compound DMSO concentration was 1.25 %. In a black non-binding plate (Corning 3676), enzyme (5 μL) was added to compound/ATP mix (5 μL). The plate was incubated for 20 min at 30 °C, then master mix (10 μL) was added into each well and mixed. The plate was incubated at 30 °C, and fluorescence intensity readings at λex=360 nm, λem=485 nm was collected at predetermined intervals on the Tecan M1000.

Chain of Tyrosine-protein kinase BTK (Q06187 whole entry): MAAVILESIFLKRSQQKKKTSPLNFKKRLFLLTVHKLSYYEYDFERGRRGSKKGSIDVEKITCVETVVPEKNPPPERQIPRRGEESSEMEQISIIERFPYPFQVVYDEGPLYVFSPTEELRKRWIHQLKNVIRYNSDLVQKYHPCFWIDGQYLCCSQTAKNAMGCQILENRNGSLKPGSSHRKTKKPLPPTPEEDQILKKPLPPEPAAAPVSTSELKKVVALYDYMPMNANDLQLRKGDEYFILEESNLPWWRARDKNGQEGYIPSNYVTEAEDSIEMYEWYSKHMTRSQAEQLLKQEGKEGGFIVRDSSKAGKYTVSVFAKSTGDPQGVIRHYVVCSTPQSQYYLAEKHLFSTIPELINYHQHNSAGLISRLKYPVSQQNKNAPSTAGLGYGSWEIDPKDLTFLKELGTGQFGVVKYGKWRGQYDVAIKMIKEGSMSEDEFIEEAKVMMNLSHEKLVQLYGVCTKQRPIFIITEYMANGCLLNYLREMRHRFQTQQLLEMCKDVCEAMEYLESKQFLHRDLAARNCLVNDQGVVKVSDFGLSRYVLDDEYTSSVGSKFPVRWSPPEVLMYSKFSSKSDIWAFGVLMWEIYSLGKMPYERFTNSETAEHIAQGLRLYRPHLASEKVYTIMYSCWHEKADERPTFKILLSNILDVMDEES

Row | IC50 | SMILES
1 | 0.55 nM | CNC(=O)[C@H]1Cc2c([nH]c3ccccc23)CN1C(=O)c1occc1CNc1ccc2nccnc2c1 [BTK inhibitor, 3]
2 | 210 nM | CNC(=O)Cc1cccc(NC(=O)c2n[nH]cc2CNc2ccccc2[C@H](O)c2ccccc2)c1 [BTK inhibitor, 2]
3 | 2500 nM | CNC(=O)C(Cc1c[nH]c2ncccc12)NC(=O)c1n[nH]c2cccc(CNc3ccc(O)cc3Cl)c12 (stereo not drawn) [BTK inhibitor, 1]
